US20230203081A1, “LINCOSAMIDE ANTIBIOTICS AND USES THEREOF” (President and Fellows of Harvard College, priority 2020, published 2023)
≈ marks a conversion by molar mass, not a printed value.

Key:
Type in all cases: cell-based
A. baumannii ATCC 19606 = experiment: MIC (broth microdilution or agar dilution, CLSI); conditions: Acinetobacter baumannii, ATCC19606; A. baumanii HAV#010, ATCC 19606; read-out: MIC
Procedure, shortened: (§1)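 Per CLSI, MICs by broth microdilution or agar dilution; strains other than streptococci and anaerobes were sub-cultured overnight at 35° C on blood agar, with a final broth inoculum of 5×10^5 CFU/mL.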

[1] = test system: broad panel of different clinical isolates; experiment: microbe, parasite or virus in culture
Procedure, shortened: as §1

P. aeruginosa ATCC 27853 = experiment: MIC (broth microdilution or agar dilution, CLSI); conditions: Pseudomonas aeruginosa, ATCC27853; P. aeruginosa HAV#009, ATCC 27853; read-out: MIC
Procedure, shortened: (§2)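 MICs were measured by CLSI broth microdilution or agar dilution over 128-0.06 μg/mL test compound at 2.5% final DMSO, in triplicate. Non-streptococcal, aerobic strains were grown overnight at 35° C on sheep blood agar, suspended in cation-adjusted Mueller-Hinton broth to 0.5 McFarland, and diluted to 5×10^5 CFU/mL.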

P. aeruginosa ΔAmex OprM = experiment: MIC (broth microdilution or agar dilution, CLSI); conditions: Pseudomonas aeruginosa
Procedure, shortened: as §2

C[C@H]1COc2c(N3CCN(C)CC3)c(F)cc3c(=O)c(C(=O)O)cn1c23 [Levofloxacin]
MIC (A. baumannii ATCC 19606): 1 µg/mL (≈ 2.77 µM)
MIC ([1]; Acinetobacter baumannii, A. baumannii HAV#651, Clinical): 0.125 µg/mL (≈ 0.346 µM)
MIC ([1]; Acinetobacter baumannii, A. baumannii HAV#652 Clinical): 1 µg/mL (≈ 2.77 µM)
MIC ([1]; Acinetobacter baumannii, A. baumannii HAV#653, Clinical): 0.25 µg/mL (≈ 0.692 µM)
MIC ([1]; Acinetobacter baumannii, A. baumannii HAV#654, Clinical): 0.125 µg/mL (≈ 0.346 µM)
MIC ([1]; Acinetobacter baumannii, A. baumannii HAV#655, Clinical): 0.5 µg/mL (≈ 1.38 µM)
MIC ([1]; Acinetobacter baumannii, A. baumannii HAV#656, Clinical): 32 µg/mL (≈ 88.6 µM)
MIC ([1]; Acinetobacter baumannii, A. baumannii HAV#657, Clinical): 0.5 µg/mL (≈ 1.38 µM)
MIC ([1]; Acinetobacter baumannii, A. baumannii HAV#658, Clinical): 0.25 µg/mL (≈ 0.692 µM)
MIC ([1]; Acinetobacter baumannii, A. baumannii HAV#659, Clinical): 16 µg/mL (≈ 44.3 µM)
MIC ([1]; Acinetobacter baumannii, A. baumannii HAV#660, Clinical): 64 µg/mL (≈ 177 µM)
MIC ([1]; Acinetobacter baumannii, A. baumannii HAV#661, Clinical): 0.125 µg/mL (≈ 0.346 µM)
MIC ([1]; Acinetobacter baumannii, A. baumannii HAV#662, Clinical): 8 µg/mL (≈ 22.1 µM)
MIC ([1]; Acinetobacter baumannii, A. baumannii HAV#663, Clinical): 0.25 µg/mL (≈ 0.692 µM)
MIC ([1]; Acinetobacter baumannii, A. baumannii HAV#664, Carbapenem R): 64 µg/mL (≈ 177 µM)
MIC ([1]; Enterococcus faecalis, E. faecalis HAV#602, Clincal): 1 µg/mL (≈ 2.77 µM)
MIC ([1]; Enterococcus faecalis, E. faecalis HAV#607, Clinical): 64 µg/mL (≈ 177 µM)
MIC ([1]; Enterococcus faecalis, E. faecalis HAV#608, Clinical): 64 µg/mL (≈ 177 µM)
MIC ([1]; Enterococcus faecalis, E. faecalis HAV#609, Clinical): 32 µg/mL (≈ 88.6 µM)
MIC ([1]; Enterococcus faecalis, E. faecalis HAV#610, Clinical): 8 µg/mL (≈ 22.1 µM)
MIC ([1]; Enterococcus faecalis, S. faecalis 5060, Line R & Vanco R): 64 µg/mL (≈ 177 µM)
MIC ([1]; Enterococcus faecalis, S. faecalis 5074, Line R): 8 µg/mL (≈ 22.1 µM)
MIC ([1]; Enterococcus faecalis, VRE, E. faecalis HAV#251, Clinical VRE): 2 µg/mL (≈ 5.53 µM)
MIC ([1]; Enterococcus faecalis, VRE, E. faecalis HAV#606, Clinical): 128 µg/mL (≈ 354 µM)
MIC ([1]; Enterococcus faecium, E. faecium HAV#317, Clinical): 2 µg/mL (≈ 5.53 µM)
MIC ([1]; Enterococcus faecium, E. faecium HAV#324, Clinical): > 128 µg/mL
MIC ([1]; Enterococcus faecium, E. faecium HAV#327, Clinical): 4 µg/mL (≈ 11.1 µM)
MIC ([1]; Enterococcus faecium, E. faecium HAV#328, Clinical): 128 µg/mL (≈ 354 µM)
MIC ([1]; Enterococcus faecium, E. faecium HAV#329, Clinical): 128 µg/mL (≈ 354 µM)
MIC ([1]; Enterococcus faecium, VRE, E. faecium HAV#319, Line R & Vanco R): 128 µg/mL (≈ 354 µM)
MIC ([1]; Enterococcus faecium, VRE, E. faecium HAV#320, Clinical): 4 µg/mL (≈ 11.1 µM)
MIC ([1]; Escherichia coli, E. coli HAV#501, Clinical): 32 µg/mL (≈ 88.6 µM)
MIC ([1]; Escherichia coli, E. coli HAV#503, Clinical): 64 µg/mL (≈ 177 µM)
MIC ([1]; Escherichia coli, E. coli HAV#511, Clinical): 4 µg/mL (≈ 11.1 µM)
MIC ([1]; Escherichia coli, E. coli HAV#512, Clinical): < 0.06 µg/mL
MIC ([1]; Escherichia coli, E. coli HAV#513, Clinical): 2 µg/mL (≈ 5.53 µM)
MIC ([1]; Escherichia coli, E. coli HAV#514, Clinical): < 0.06 µg/mL
MIC ([1]; Escherichia coli, E. coli HAV#516, ESBL-producing): 16 µg/mL (≈ 44.3 µM)
MIC ([1]; Haemophilus influenzae, ATCC9007, H. influenzae HAV#376, ATCC-9007): 0.03 µg/mL (≈ 0.083 µM)
MIC ([1]; Klebsiella pneumoniae, K. pneumoniae HAV#041, Clinical, KPC): 64 µg/mL (≈ 177 µM)
MIC ([1]; Klebsiella pneumoniae, K. pneumoniae HAV#404, Clinical): 1 µg/mL (≈ 2.77 µM)
MIC ([1]; Klebsiella pneumoniae, K. pneumoniae HAV#405, Clinical): 1 µg/mL (≈ 2.77 µM)
MIC ([1]; Klebsiella pneumoniae, K. pneumoniae HAV#406, Clinical): 0.125 µg/mL (≈ 0.346 µM)
MIC ([1]; Klebsiella pneumoniae, K. pneumoniae HAV#407, Clinical): > 128 µg/mL
MIC ([1]; Klebsiella pneumoniae, K. pneumoniae HAV#408, Clinical): 1 µg/mL (≈ 2.77 µM)
MIC ([1]; Klebsiella pneumoniae, K. pneumoniae HAV#409, ESBL-producing): 0.5 µg/mL (≈ 1.38 µM)
MIC ([1]; Staphylococcus aureus, MRSA, S. aureus HAV#0107, MRSA Col(Colindale, England)): 1 µg/mL (≈ 2.77 µM)
MIC ([1]; Staphylococcus aureus, MRSA, S. aureus HAV#218, Line R): 0.25 µg/mL (≈ 0.692 µM)
MIC ([1]; Staphylococcus aureus, MRSA, S. aureus HAV#220, Line R): 64 µg/mL (≈ 177 µM)
MIC ([1]; Staphylococcus aureus, MSSA, S. aureus HAV#219, Line R): 0.25 µg/mL (≈ 0.692 µM)
MIC ([1]; Staphylococcus aureus, S. aureus HAV#051, mecA, norA, spcl, ermA, aad1, aac6′-aph2″): 0.5 µg/mL (≈ 1.38 µM)
MIC ([1]; Staphylococcus aureus, S. aureus HAV#052, mecA, norA, fosB, blaZ): 1 µg/mL (≈ 2.77 µM)
MIC ([1]; Staphylococcus aureus, S. aureus HAV#053 mecA, norA, fosB): 0.5 µg/mL (≈ 1.38 µM)
MIC ([1]; Staphylococcus aureus, S. aureus HAV#054, mecA, norA, spcl, aad1, fosB, ermA, aac6′-aph2″, blaZ): 32 µg/mL (≈ 88.6 µM)
MIC ([1]; Staphylococcus aureus, S. aureus HAV#212, Clinical): 0.25 µg/mL (≈ 0.692 µM)
MIC ([1]; Staphylococcus aureus, S. aureus HAV#213, Clinical): 2 µg/mL (≈ 5.53 µM)
MIC ([1]; Staphylococcus aureus, S. aureus HAV#214, Clinical): 0.25 µg/mL (≈ 0.692 µM)
MIC ([1]; Staphylococcus aureus, S. aureus HAV#215, Clinical): 0.25 µg/mL (≈ 0.692 µM)
MIC ([1]; Staphylococcus aureus, S. aureus HAV#217, cfr): 2 µg/mL (≈ 5.53 µM)
MIC ([1]; Staphylococcus aureus, VISA, S. aureus HAV#203, Clinical (VISA)): 8 µg/mL (≈ 22.1 µM)
MIC ([1]; Staphylococcus epidermidis, S. epidermidis HAV# 275 Clinical, cfr): 16 µg/mL (≈ 44.3 µM)
MIC ([1]; Staphylococcus epidermidis, S. epidermidis HAV# 276, cfr): 128 µg/mL (≈ 354 µM)
MIC ([1]; Staphylococcus epidermidis, S. epidermidis HAV#277, Line R): > 128 µg/mL
MIC ([1]; Staphylococcus epidermidis, S. epidermidis HAV#278 Line R): 16 µg/mL (≈ 44.3 µM)
MIC ([1]; Staphylococcus epidermidis, S. epidermidis HAV#279, Line R): 8 µg/mL (≈ 22.1 µM)
MIC ([1]; Staphylococcus haemolyticus, S. haemolyticus 5052, Line R & Methicillin R): 8 µg/mL (≈ 22.1 µM)
MIC ([1]; Streptococcus pneumoniae, ATCC700673, S. pneumoniae HAV#352, ATCC 700673, MDR): 0.5 µg/mL (≈ 1.38 µM)
MIC ([1]; Streptococcus pneumoniae, ATCCBAA255, S. pneumoniae HAV#354, ATCC-BAA-255): 0.25 µg/mL (≈ 0.692 µM)
MIC ([1]; Streptococcus pneumoniae, ATCCBAA334, S. pneumoniae HAV#353, ATCC-BAA-334): 0.5 µg/mL (≈ 1.38 µM)
MIC ([1]; Streptococcus pneumoniae, S. pneumoniae HAV#356, Clinical): 0.25 µg/mL (≈ 0.692 µM)
MIC ([1]; Streptococcus pneumoniae, S. pneumoniae HAV#358, Clinical): 0.25 µg/mL (≈ 0.692 µM)
MIC (P. aeruginosa ATCC 27853): 2 µg/mL (≈ 5.53 µM)
MIC (P. aeruginosa ΔAmex OprM): 0.125 µg/mL (≈ 0.346 µM)
